Results from patent US10072023B2, “Diarylethene compounds and uses thereof” (SWITCH MATERIALS, INC., priority 2011, dated 2018).

Key:
Format in all cases: physicochemical
[1] = Absorbance at photostationary state (PSS) under simulated sunlight or 365 nm light; design: λ max: unit not given here; conditions: for Absorbance at PSS, 365 nm: 365 nm light source; for Absorbance at PSS, 365 nm / Absorbance at PSS, full / Absorbance at PSS, +UV / λ max: 2.0×10^−5 M in triglyme; for sensitivity index: ratio of PSS under 365 nm light to PSS under full spectrum light (without UV blocking film); for Absorbance at PSS, full: simulated sunlight (QSUN solar simulator), no UV blocking film; for Absorbance at PSS, +UV: simulated sunlight with UV blocking film (cutoff 370 nm); for λ max: wavelength of maximum absorbance in the visible range, ring-closed isoform
In short: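 Compounds at 2.0×10^−5 M in triglyme, photofaded with visible light, then irradiated with simulated sunlight (xenon arc) or 365 nm light until the UV/Vis spectrum stabilized. Also irradiated through a UV-blocking film (370 nm cutoff); sensitivity index is PSS under 365 nm divided by PSS under full spectrum.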

[2] = Solubility in indicated solvent; conditions: % wt soluble in triglyme
Text: A compound with greater solubility allows for a formulation or material with a greater concentration of coloured molecule to be incorporated into a composition. This may allow for increasing the contrast ratio for a compound with a lesser absorbance at PSS. Inclusion of a solubilizing group in a compound according to various embodiments of the invention may increase solubility. Examples of solubilizing groups may include alkoxy or siloxy groups.

[3] = PSS and light composition (sunlight vs interior lighting); conditions: 2×10^−4 M in triglyme
Text: The difference in PSS as a function of light source type was investigated. The light sources included direct sunlight (filtered through window glass) and interior lighting. Irradiance information and spectral profiles of light sources are provided in Table 9 and FIG. 2, respectively. Six compounds (2×10^−4 M solutions of S096, S094, S079, S044, S042 and S035 in triglyme) were investigated and compared for performance on the basis of maximum difference in darkening ability between sunlight and interior lighting conditions. Darkening ability is indicated by the absorbance at λmax in the visible light spectrum for the ring-closed isomer of the chromophore.
Samples were then moved away from the window (300 cm from window, with interior lighting on) to alter the light composition by reducing the sunlight component. […] Finally, samples were again irradiated to the darkest state under sunlight conditions (20 cm from window) and then subjected to interior lighting conditions only (sunlight blocked out with blinds), allowing the samples to fade to a lower PSS specific to these lighting conditions as shown in FIG. 3.
Sample darkening times were less than one minute, while sample photofading times ranged as high as 20 minutes. […]

Row | Structure (SMILES) | Absorbance at PSS, 365 nm [1] | sensitivity index [1] | Absorbance at PSS, full [1] | Absorbance at PSS, +UV [1] | λ max [1] | Solubility [2] [% wt] | change in degree of coloration in response to variation in the light source [3]
1 | CC(C)(C)c1ccc(-c2cc(C3=C(c4cc(-c5ccc(C(C)(C)C)cc5)sc4-c4ccc(C(C)(C)C)cc4)C(F)(F)C(F)(F)C3(F)F)c(-c3ccc(C(C)(C)C)cc3)s2)cc1 [S042] | 0.233 | 2.40 | 0.097 | 0.04 | 612 | 0.5 | greatest change in degree of coloration
2 | CC(C)CCOc1ccc(-c2cc(C3=C(c4cc(-c5ccc(OCCC(C)C)cc5)sc4-c4ccc(OCCC(C)C)cc4)C(F)(F)C(F)(F)C3(F)F)c(-c3ccc(OCCC(C)C)cc3)s2)cc1 [S094, 3,3′-(perfluorocyclopent-1-ene-1,2-diyl)bis(2,5-bis(4-(isopentyloxy)phenyl)thiophene)] | 0.311 | 1.74 | 0.179 | 0.103 | 625 |  | greatest change in degree of coloration
3 | CC(C)(C)c1ccc(-c2cc(C3=C(c4cc(-c5ccc(C(C)(C)C)cc5)sc4-c4cccs4)C(F)(F)C(F)(F)C3(F)F)c(-c3cccs3)s2)cc1 [S049, 3,3″-(perfluorocyclopent-1-ene-1,2-diyl)bis(5-(4-(tert-butyl)phenyl)-2,2′-bithiophene)] | 0.217 | 2.49 | 0.087 | 0.044 | 625 | 2 | 
